Data on one compound can be found in PMC8645336, “Benchmarking a highly selective USP30 inhibitor for enhancement of mitophagy and pexophagy” (Life Science Alliance, 2021).

What all share (assay): biochemical
Set-up in all cases: Ubiquigent DUB profiler selectivity panel, remaining enzyme activity as % of control
What all share (conditions): read-out: % of control remaining

One test concerns the target T1, AMSH-LP (+Zinc) (Homo sapiens, UniProt Q96FJ0).
T1 construct: gene STAMBPL1; +Zinc
T1 sequence (Q96FJ0 1-436): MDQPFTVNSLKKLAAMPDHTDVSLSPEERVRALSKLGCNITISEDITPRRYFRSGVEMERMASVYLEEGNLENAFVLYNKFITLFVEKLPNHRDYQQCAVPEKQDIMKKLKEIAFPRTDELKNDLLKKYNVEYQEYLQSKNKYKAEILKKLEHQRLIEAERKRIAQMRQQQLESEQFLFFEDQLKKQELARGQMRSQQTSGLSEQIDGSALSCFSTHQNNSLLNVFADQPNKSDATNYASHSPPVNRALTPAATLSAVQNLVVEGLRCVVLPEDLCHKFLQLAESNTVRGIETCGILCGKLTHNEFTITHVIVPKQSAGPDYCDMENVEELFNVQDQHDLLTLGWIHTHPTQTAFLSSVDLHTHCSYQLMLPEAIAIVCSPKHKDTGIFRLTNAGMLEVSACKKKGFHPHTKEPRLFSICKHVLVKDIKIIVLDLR
Put shortly:
(§1)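 CMPD-39 selectivity was profiled at 1-100 μM across >40 DUBs. Cellular engagement used 2 h CMPD-39 pretreatment, then HA-Ub-PA probe for 10 min at 37°C, with USP30 band shift on immunoblot. TOMM20 ubiquitylation was blotted in YFP-PRKN hTERT-RPE1 cells after 1 h antimycin A/oligomycin A (1 μM each).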

Another test has as its target T2, USP19 (Homo sapiens, UniProt O94966).
T2 sequence (O94966 1-1318): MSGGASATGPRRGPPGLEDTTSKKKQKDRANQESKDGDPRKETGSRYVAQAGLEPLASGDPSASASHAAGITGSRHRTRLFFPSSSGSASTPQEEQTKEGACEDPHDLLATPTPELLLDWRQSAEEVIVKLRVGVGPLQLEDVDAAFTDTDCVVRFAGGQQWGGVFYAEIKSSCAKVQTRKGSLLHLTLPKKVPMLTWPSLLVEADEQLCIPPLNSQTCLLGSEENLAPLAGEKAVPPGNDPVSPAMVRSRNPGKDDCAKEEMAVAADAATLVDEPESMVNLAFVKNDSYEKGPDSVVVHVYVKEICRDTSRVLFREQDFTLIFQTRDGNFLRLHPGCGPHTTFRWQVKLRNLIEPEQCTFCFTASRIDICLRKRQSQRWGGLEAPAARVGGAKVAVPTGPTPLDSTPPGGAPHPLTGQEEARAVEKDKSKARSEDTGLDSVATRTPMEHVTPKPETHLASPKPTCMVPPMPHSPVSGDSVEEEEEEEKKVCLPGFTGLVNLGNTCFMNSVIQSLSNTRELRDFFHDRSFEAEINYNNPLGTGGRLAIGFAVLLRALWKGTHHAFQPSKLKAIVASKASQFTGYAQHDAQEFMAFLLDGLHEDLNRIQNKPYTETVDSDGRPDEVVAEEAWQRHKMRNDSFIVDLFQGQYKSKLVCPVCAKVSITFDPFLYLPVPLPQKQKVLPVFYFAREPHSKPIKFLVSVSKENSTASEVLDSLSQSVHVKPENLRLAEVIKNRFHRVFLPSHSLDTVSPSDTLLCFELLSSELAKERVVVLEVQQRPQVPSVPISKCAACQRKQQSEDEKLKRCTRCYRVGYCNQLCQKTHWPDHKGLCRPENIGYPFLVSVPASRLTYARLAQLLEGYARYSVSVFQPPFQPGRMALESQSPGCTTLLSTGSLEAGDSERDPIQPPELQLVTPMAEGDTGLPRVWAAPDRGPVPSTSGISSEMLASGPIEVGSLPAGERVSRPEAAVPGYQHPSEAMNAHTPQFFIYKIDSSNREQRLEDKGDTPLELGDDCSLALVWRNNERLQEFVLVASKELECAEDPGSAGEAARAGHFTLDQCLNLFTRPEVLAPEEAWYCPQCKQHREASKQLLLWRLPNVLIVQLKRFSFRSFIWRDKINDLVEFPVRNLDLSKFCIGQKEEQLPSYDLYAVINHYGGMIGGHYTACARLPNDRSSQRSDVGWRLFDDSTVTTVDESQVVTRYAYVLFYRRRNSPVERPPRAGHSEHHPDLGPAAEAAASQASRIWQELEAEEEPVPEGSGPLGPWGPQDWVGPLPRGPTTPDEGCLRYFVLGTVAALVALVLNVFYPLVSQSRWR
Put shortly:
as §1

The next test concerns the target USP46/UAF1/WDR20 (Homo sapiens, UniProt P62068). The method in brief: as §1

Chain of USP46/UAF1/WDR20 (P62068 whole entry): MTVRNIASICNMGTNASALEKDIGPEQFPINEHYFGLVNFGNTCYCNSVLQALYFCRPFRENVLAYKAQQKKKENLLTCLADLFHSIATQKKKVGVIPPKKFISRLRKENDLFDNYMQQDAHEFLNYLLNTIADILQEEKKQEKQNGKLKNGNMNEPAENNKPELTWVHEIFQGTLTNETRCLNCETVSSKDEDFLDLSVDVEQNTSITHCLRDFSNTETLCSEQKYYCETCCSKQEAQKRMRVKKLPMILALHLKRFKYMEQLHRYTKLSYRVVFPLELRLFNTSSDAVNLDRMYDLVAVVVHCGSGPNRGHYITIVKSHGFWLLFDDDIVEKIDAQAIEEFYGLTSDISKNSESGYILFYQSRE
Chain of USP46/UAF1/WDR20 (Q8TAF3 whole entry partner): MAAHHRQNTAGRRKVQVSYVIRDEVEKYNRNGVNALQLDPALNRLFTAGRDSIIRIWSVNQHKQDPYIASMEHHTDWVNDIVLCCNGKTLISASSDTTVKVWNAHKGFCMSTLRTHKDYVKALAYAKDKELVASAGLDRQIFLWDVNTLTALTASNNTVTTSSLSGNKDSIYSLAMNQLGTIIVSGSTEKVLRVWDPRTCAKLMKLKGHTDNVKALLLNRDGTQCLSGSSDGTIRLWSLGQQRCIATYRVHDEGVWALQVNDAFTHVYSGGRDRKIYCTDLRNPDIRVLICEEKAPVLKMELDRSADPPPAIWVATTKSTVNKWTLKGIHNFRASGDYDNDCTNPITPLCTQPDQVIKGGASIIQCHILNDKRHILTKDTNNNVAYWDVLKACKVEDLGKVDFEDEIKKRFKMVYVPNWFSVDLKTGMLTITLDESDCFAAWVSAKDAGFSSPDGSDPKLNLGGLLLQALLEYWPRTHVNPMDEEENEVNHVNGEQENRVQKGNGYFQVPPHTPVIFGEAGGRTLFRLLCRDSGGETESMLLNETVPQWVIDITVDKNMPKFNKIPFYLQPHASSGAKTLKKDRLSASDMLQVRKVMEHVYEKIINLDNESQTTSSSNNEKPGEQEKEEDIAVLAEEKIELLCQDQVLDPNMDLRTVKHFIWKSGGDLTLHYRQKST
Chain of USP46/UAF1/WDR20 (Q8TBZ3 whole entry partner): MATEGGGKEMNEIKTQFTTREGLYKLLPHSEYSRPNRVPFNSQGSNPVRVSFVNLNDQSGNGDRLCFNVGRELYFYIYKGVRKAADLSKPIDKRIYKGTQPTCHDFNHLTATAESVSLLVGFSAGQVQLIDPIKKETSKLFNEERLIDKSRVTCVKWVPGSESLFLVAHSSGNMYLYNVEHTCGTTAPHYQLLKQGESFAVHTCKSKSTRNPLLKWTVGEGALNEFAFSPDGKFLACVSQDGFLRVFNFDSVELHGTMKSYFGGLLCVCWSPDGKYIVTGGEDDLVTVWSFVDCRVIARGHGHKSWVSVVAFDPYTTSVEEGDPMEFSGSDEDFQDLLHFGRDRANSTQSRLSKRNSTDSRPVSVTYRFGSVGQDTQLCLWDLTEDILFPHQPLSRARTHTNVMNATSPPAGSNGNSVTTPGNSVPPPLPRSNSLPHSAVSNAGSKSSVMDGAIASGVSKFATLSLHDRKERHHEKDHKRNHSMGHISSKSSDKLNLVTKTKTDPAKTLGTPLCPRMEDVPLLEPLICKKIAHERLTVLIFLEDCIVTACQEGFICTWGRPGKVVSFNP

Turning to `CC(C)(C)NS(=O)(=O)c1ccc(NC(=O)[C@H](Cc2ccccc2)NC(=O)c2ccc(F)cc2)cc1` [compound 39, CMPD-39], at AMSH-LP (+Zinc), the remaining activity at 1 µM came to 106%, the remaining activity at 10 µM came to 101% and the remaining activity at 100 µM was 97.8%. On USP19, the remaining activity at 1 µM was 107%, the remaining activity at 10 µM came to 99.7% and the remaining activity at 100 µM was found to be 99.8%. For the same compound, at USP46/UAF1/WDR20, the remaining activity at 1 µM was determined as 110%, the remaining activity at 10 µM came to 97.5% and the remaining activity at 100 µM was 97.4%.
